Data: patent publication US20070248954A1, “Primers for Use in Detecting Beta-Lactamases” (Creighton University, priority 2003, published 2007)
≈ marks a conversion by molar mass, not a printed value.

Columns and labels:
[1] = tested on: DNA template prepared from control strains known to produce specific CTX-M β-lactamases or ESBLs other than CTX-M β-lactamases; assay: PCR specificity test of designed primers on control strains; conditions: for amplification with the rest of the control strains: DNA template from all other control strains in Table 1; for size of single amplified product: DNA template from the control strains of the primer set's own group
Text: Once the primers are designed, their specificity can be tested using the following method. Depending on the target nucleic acid of clinical interest, a nucleic acid is isolated from a bacterial control strain known to express or contain the resistance gene. This control strain, as used herein, refers to a “positive control” nucleic acid (typically, DNA). Additionally, a “negative control” nucleic acid (typically, DNA) can be isolated from one or more bacterial strains known to express a resistance gene other than the target gene of interest. Using the polymerase chain reaction, the designed primers are employed in a detection method, as described above, and used in the positive and negative control samples and in at least one test sample suspected of containing the resistance gene of interest. The positive and negative controls provide an effective and qualitative (or grossly quantitative) means by which to establish the presence or the absence of the gene of interest of test clinical samples. It should be recognized that with a small percentage of primer pairs, possible cross-reactivity with other β-lactamase genes might be observed. However, the size and/or intensity of any cross-reactive amplified product will be considerably different and can therefore be readily evaluated and dismissed as a negative result.
Polymerase Chain Reaction (PCR) amplifications were carried out on a Thermal Cycler 9600 instrument (Applied Biosystems, Norwalk, Conn.) as indicated in Example 1, with the primers, the size of the expected amplification product, and annealing temperatures used for the PCR as listed in Table 1. Magnesium chloride concentrations were 1.5 mM for all PCR reactions.
The designed primers were tested for specificity in separate PCR reactions using DNA template prepared from control strains known to produce specific CTX-M β-lactamases or strains producing ESBLs other than CTX-M β-lactamases (Tables 1 and 2, FIG. 3). […] Group II primers amplified a single 351 bp fragment when DNA template was prepared from control strains Rio-4, 34, and CT1.
Group IV primers amplified a 474 bp product from DNA prepared from strains 785D, EC984167, CF1, Rio-6, BM4493, ILT-2, and ILT-3. […] An isolate producing CTX-M-25 was requested but not obtained. Therefore, we were unable to examine the ability of the Group III primer set to amplify blaCTX-M-25.

[2] = tested on: E. coli (n = 51), PCR for blaCTXM genes Negative; assay: ESBL screening of clinical strains; assay type: cell-based; conditions: drug 1 μg/ml
Description: (§1) A total of 175 isolates representing E. coli (n=168), K. pneumoniae (n=7) were studied. Minimum inhibitory concentrations (MICs) to the following drugs were determined by Vitek (Vitek AMS; bioMérieux Vitek 5 Systems Inc., Hazelwood, Mo.); piperacillin (PIP), piperacillin/tazobactam (TZP), cefpodoxime (CPD), cefotaxime (CTX), ceftazidime (CAZ). The quality control strains used for this study were E. coli ATCC 25922, E. coli 35218, Pseudomonas aeruginosa ATCC 27853, Staphlylococcus aureus ATCC 29213, and K. pneumoniae ATCC 700603. Throughout this study, results were interpreted using National Committee for Clinical Laboratory Standards (NCCLS) criteria for broth dilution.
(§2) The presence of ESBLs was evaluated in both the control strains and the recent clinical isolates. Screening was performed with Vitek (Vitek AMS; bioMerieux Vitek Systems, Inc., Hazelwood, Mo.) using 1 μg/ml CPD, CAZ, and CTX. Screening and disk confirmation tests using CTX (30 μg) and CAZ (30 μg) disks in combination with 10 μg clavulanate (CLA) were performed and interpreted using NCCLS criteria for ESBL screening and disk confirmation tests. Disks for_ESBL confirmation tests were obtained from Oxoid Inc. (Nepean, Ontario, Canada). K. pneumoniae ATCC 700603 and E. coli ATCC 25922 were used as positive and negative controls, respectively.

[3] = tested on: K. pneumoniae (n = 5), PCR for blaCTXM genes Negative; assay: ESBL screening of clinical strains; assay type: cell-based; conditions: drug 1 μg/ml
Description: as §1, §2

[4] = tested on: E. coli (n = 24), Positive for CTX-M-1 group; assay: ESBL screening of clinical strains; assay type: cell-based; conditions: drug 1 μg/ml
Description: as §1, §2

[5] = tested on: E. coli (n = 93), Positive for CTX-M-1V group; assay: ESBL screening of clinical strains; assay type: cell-based; conditions: drug 1 μg/ml
Description: as §1, §2

[6] = tested on: K. pneumoniae (n = 2), Positive for CTX-M-1V group; assay: ESBL screening of clinical strains; assay type: cell-based; conditions: drug 1 μg/ml
Description: as §1, §2

[7] = tested on: Total (n = 175) clinical strains producing extended-spectrum β-lactamases; assay: ESBL screening of clinical strains; assay type: cell-based, E. coli, K. pneumoniae; conditions: drug 1 μg/ml
Description: as §1, §2

[8] = tested on: Twenty two isolates representing E. coli (Ec), Citrobacter freundii (Cf) and C. koseri (Ck); assay: MICs of the 22 isolates of Example 1; assay type: cell-based; conditions: read-out: MICs; all 22 isolates (E. coli, C. freundii, C. koseri)
Description: Twenty two isolates representing E. coli (Ec), Citrobacter freundii (Cf) and C. koseri (Ck) were studied. All of these strains had MICs of greater than (>) 32 micrograms per milliliter […] of cefotaxime, >16 mg/ml of cefepime, and ranged between 1 to 8 mg/ml for ceftazidime. Dendrogram analysis of CTX-M genes deposited in GenBank was performed, and based on these analyses, known CTX-M-genes were divided into four families. Based on these families, four sets of family-specific primers were designed. Specificity of the primers was tested on all 22 of the isolates.

ESBL-producing strains = conditions: drug used as an initial screen; cited from earlier work

MIC [8] | Molecule | amplification with the rest of the control strains [1] | size of single amplified product [1] | Screening, No positive [2] | Screening, No positive (%) [2] | Screening, No positive [3] | Screening, No positive (%) [3] | Screening, No positive [4] | Screening, No positive (%) [4] | Screening, No positive [5] | Screening, No positive (%) [5] | Screening, No positive [6] | Screening, No positive (%) [6] | Screening, No positive [7] | Screening, No positive (%) [7] | other results
 | CTX-M-I group: primer pair of SEQ ID NO:1 and SEQ ID NO:2, Group 1 CTX-M β-lactamases, 499 base pair amplicon (DNA 1 GACGATGTCACTGGCTGAGC; DNA 2 AGCCGCCGACGCTAATACA; PCR primers, chemistry not given here, further chemistry not given here) | No amplified product | 499 bp |  |  |  |  |  |  |  |  |  |  |  |  | 
 | COCC1=C(C(=O)O)N2C(=O)[C@@H](NC(=O)/C(=N\OC)c3csc(N)n3)[C@H]2SC1 [CPD, cefpodoxime] |  |  | 51 | (100%) | 5 | (100%) | 24 | (100%) | 93 | (100%) | 2 | (100%) | 175 | (100%) | 
 | CTX-M-II group: primer pair of SEQ ID NO:3 and SEQ ID NO:4, Group 2 CTX-M β-lactamases, 351 base pair amplicon (DNA 1 GCGACCTGGTTAACTACAATCC; DNA 2 CGGTAGTATTGCCCTTAAGCC; PCR primers, chemistry not given here, further chemistry not given here) | no amplification product | 351 bp |  |  |  |  |  |  |  |  |  |  |  |  | 
 | CTX-M-VI group: primer pair of SEQ ID NO:5 and SEQ ID NO:6, Group 4 CTX-M β-lactamases, 474 base pair amplicon (DNA 1 GCTGGAGAAAAGCAGCGGAG; DNA 2 GTAAGCTGACGCAACGTCTG; PCR primers, chemistry not given here, further chemistry not given here) | no amplification of DNA | 474 bp |  |  |  |  |  |  |  |  |  |  |  |  | 
 | CTX-M-III group: primer pair of SEQ ID NO:7 and SEQ ID NO:8, Group 3 or Group 5 CTX-M β-lactamases, 307 base pair amplicon (DNA 1 CGCTTTGCCATGTGCAGCACC; DNA 2 GCTCAGTACGATCGAGCC; PCR primers, chemistry not given here, further chemistry not given here) |  |  |  |  |  |  |  |  |  |  |  |  |  |  | control strains whose DNA was amplified ([1]; all control strains of Table 1): amplification of DNA prepared from only one strain, Rio-3
> 32 µg/mL | CO/N=C(\C(=O)N[C@@H]1C(=O)N2C(C(=O)O)=C(COC(C)=O)CS[C@H]12)c1csc(N)n1 [CTX, cefotaxime] |  |  | 48 | (94%) | 4 | (80%) | 24 | (100%) | 93 | (100%) | 2 | (100%) | 171 | (98%) | 
> 16 µg/mL | CO/N=C(\C(=O)N[C@@H]1C(=O)N2C(C(=O)[O-])=C(C[N+]3(C)CCCC3)CS[C@H]12)c1csc(N)n1 [cefepime] |  |  |  |  |  |  |  |  |  |  |  |  |  |  | 

Molecule | MIC [8] | amplification with the rest of the control strains [1] | size of single amplified product [1] | Screening, No positive [2] | Screening, No positive (%) [2] | Screening, No positive [3] | Screening, No positive (%) [3] | Screening, No positive [4] | Screening, No positive (%) [4] | Screening, No positive [5] | Screening, No positive (%) [5] | Screening, No positive [6] | Screening, No positive (%) [6] | Screening, No positive [7] | Screening, No positive (%) [7] | other results
CC(C)(O/N=C(\C(=O)N[C@@H]1C(=O)N2C(C(=O)[O-])=C(C[n+]3ccccc3)CS[C@H]12)c1csc(N)n1)C(=O)O [CAZ, ceftazidime] | 1 to 8 µg/mL (≈ 1.83 to 14.6 µM) |  |  | 51 | (100%) | 5 | (100%) | 24 | (100%) | 71 | (76%) | 0 | (0%) | 151 | (86%) | ESBL-producing strains not detected (ESBL-producing strains): about 14%
